Results on 19 compounds are retold here after patent US9370183B2, “Use of ALS inhibitor herbicides for control of unwanted vegetation in ALS inhibitor herbicide tolerant Brassica, such as B. napus, plants” (Bayer Intellectual Property GmbH, priority 2011, dated 2016).

The structures appear in SMILES notation. Like-named read-outs stand apart in the source and are kept apart here.

The test system of assay [1] is B. napus wild type variety SR002201. Put plainly: Greenhouse herbicide injury, visual scoring, wild type variety. It is filed as in vivo, Brassica napus. The following applies: spray at BBCH 12-13 with Mero 1 l/ha, visual scoring 14 days after application, 0%=no damage, 100%=all plants dead. The procedure: (§1) The individual components herbicide and surfactant with regard to type and application rate as stated in table 1 were added with stirring to a water application rate of 300 l/ha so that a homogeneous spray mixture was formed. The adjuvant Mero® (Bayer CropScience AG: active ingredient is 81% rapeseed oil methyl ester) was always added to the spray liquids with a use rate of one l/ha.
(§2) Seeds of B. napus were sown in a sandy loam soil and placed in a climate chamber in a greenhouse under good growth conditions (16 h light, temperature day 14° C., night: 8° C.). The plants (10 per experiment) were grown up to growth stage of BBCH 12 to BBCH 13. […] After the treatment, the plants were returned to the climate chamber.
(§3) Visual scoring was carried out using a percentage scale of 0%=no damage to 100%=all plants dead.

For another assay, the system named is B. napus mutant FM 202. It is filed as in vivo, Brassica napus. As to conditions: spray at BBCH 12-13 with Mero 1 l/ha, visual scoring 14 days after application, 0%=no damage, 100%=all plants dead. The procedure:
as §1, §2, §3

Assay [2] addresses T1, A. thaliana W574L-mutant ALS (Arabidopsis thaliana, UniProt P17597, E575Q/W574L).
T1 construct: vector-encoded fusion of pET-32a(+) (Trx/His/S-tag by own knowledge of the vector); made in house; host or cells: Escherichia coli AD494
It is filed as biochemical. As to conditions: negative logarithm of the molar concentration inhibiting the enzyme activity by 50%; crude extract of E. coli expressing A. thaliana W574L ALS; 75 min, 30° C. The procedure:
(§4) Bacteria were grown at 37° C. in LB-medium containing 100 mg/l carbenicillin and 25 mg/l canamycin, induced with 1 mM isopropyl-β-D-thiogalactopyranoside at an OD600 of 0.6, cultivated for 16 hours at 18° C. and harvested by centrifugation. Bacterial pellets were resuspended in 100 mM sodium phosphate buffer pH 7.0 containing 0.1 mM thiamine-pyrophosphate, 1 mM MgCl2, and 1 μM FAD at a concentration of 1 gram wet weight per 25 ml of buffer and disrupted by sonification. The crude protein extract obtained after centrifugation was used for ALS activity measurements.
(§5) Assays were initiated by adding enzyme and terminated after 75 min incubation at 30° C. by the addition of 40 μl 0.5 M H2SO4.

Assay [3] addresses T2, A. thaliana A205V-mutant ALS (Arabidopsis thaliana, UniProt P17597, A205V/E575Q).
T2 construct: vector-encoded fusion of pET-32a(+) (Trx/His/S-tag by own knowledge of the vector); made in house; host or cells: Escherichia coli AD494
Put plainly: biochemical. The following applies: negative logarithm of the molar concentration inhibiting the enzyme activity by 50%, crude extract of E. coli expressing A. thaliana A205V ALS, 75 min, 30° C.; for IC50: read-out: ALS PI50 A205V (converted). The procedure: as §4, §5

Assay [4] deals with T3, A. thaliana S653N-mutant ALS (Arabidopsis thaliana, UniProt P17597, E575Q/S653N).
T3 construct: vector-encoded fusion of pET-32a(+) (Trx/His/S-tag by own knowledge of the vector); made in house; host or cells: Escherichia coli AD494
T3 sequence (P17597 56-670 E575Q/S653N): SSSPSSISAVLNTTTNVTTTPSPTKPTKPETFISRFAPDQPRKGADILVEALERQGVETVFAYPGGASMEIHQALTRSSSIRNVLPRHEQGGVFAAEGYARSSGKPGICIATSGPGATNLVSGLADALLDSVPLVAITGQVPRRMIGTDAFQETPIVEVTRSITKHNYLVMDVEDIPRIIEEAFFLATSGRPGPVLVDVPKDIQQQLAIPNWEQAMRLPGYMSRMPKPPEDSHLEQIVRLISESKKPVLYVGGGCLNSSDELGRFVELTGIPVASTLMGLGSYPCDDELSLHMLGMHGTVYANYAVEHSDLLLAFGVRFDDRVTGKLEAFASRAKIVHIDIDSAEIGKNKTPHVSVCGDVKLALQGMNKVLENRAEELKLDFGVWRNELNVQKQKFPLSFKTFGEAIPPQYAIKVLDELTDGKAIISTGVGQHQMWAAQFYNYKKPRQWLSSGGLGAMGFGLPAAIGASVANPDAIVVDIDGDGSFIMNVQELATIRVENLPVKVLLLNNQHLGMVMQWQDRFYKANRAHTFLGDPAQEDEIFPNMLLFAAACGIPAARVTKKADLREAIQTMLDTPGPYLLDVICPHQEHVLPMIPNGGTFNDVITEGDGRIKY
The assay can be described thus: biochemical. As to conditions: negative logarithm of the molar concentration inhibiting the enzyme activity by 50%, crude extract of E. coli expressing A. thaliana S653N ALS, 75 min, 30° C.; for IC50: read-out: ALS PI50 S653N (converted). The procedure: as §4, §5

Assay [5] concerns the target T4, A. thaliana wild-type ALS (Arabidopsis thaliana, UniProt P17597, E575Q).
T4 construct: vector-encoded fusion of pET-32a(+) (Trx/His/S-tag by own knowledge of the vector); made in house; host or cells: Escherichia coli AD494
Put plainly: biochemical. The following applies: negative logarithm of the molar concentration inhibiting the enzyme activity by 50%, crude extract of E. coli expressing A. thaliana wild-type ALS, 75 min, 30° C.; for IC50: read-out: ALS PI50 WT (converted). The procedure: as §4, §5

T4 sequence (P17597 56-670 E575Q): as the sequence (P17597 56-670 E575Q/S653N) above, with N598S counted along it
T2 sequence (P17597 56-670 A205V/E575Q): as the sequence (P17597 56-670 E575Q/S653N) above, with A150V, N598S counted along it
T1 sequence (P17597 56-670 W574L/E575Q): as the sequence (P17597 56-670 E575Q/S653N) above, with W519L, N598S counted along it

With `COC(=O)c1cccc(C)c1S(=O)(=O)NC(=O)Nc1nc(OCC(F)(F)F)nc(N(C)C)n1` [Triflusulfuron, triflusulfuron-methyl], the “Herbicide injury on BRSNS [%] SR002201” value in assay [1] (20 g a.i./ha) worked out at 65%. In addition, the “Herbicide injury on BRSNS [%] FM 202” value in the assay on B. napus mutant FM 202 (20 g a.i./ha) is on record as 0%.

With `COC(=O)c1ccccc1S(=O)(=O)NC(=O)N(C)c1nc(C)nc(OC)n1`, the “Herbicide injury on BRSNS [%] SR002201” value in assay [1] (30 g a.i./ha) was determined as 95%. In addition, in the assay on B. napus mutant FM 202 (30 g a.i./ha), the “Herbicide injury on BRSNS [%] FM 202” value was 3%.

For the compound `COc1nc(C)nc(NC(=O)NS(=O)(=O)c2ccccc2Cl)n1` [Chlorsulfuron, chlorsulfuron], the “Herbicide injury on BRSNS [%] SR002201” value in assay [1] (9 g a.i./ha) amounted to 97%. In addition, in the assay with B. napus mutant FM 202 (9 g a.i./ha), the “Herbicide injury on BRSNS [%] FM 202” value is on record as 0%.

For `COc1ncc(F)c2nc(S(=O)(=O)Nc3c(F)cccc3F)nn12` [Florasulam, florasulam], the “ALS PI50 W574L” value in assay [2] worked out at 4.6. In addition, the “ALS PI50 A205V” value in assay [3] is 6.1. Further, the “ALS PI50 S653N” value in assay [4] is given as 7.6. For the same compound, the “ALS PI50 WT” value in assay [5] was found to be 7.9.

As for `CCS(=O)(=O)c1nc2ccccn2c1S(=O)(=O)NC(=O)Nc1nc(OC)cc(OC)n1` [Sulfosulfuron, sulfosulfuron], the IC50 is 1260 nM in assay [3], 79.4 nM in assay [4] and 15.8 nM in assay [5].

In the case of `COc1cc(OC)nc(Oc2cccc(Oc3nc(OC)cc(OC)n3)c2C(=O)O)n1` [Bispyribac-sodium, bispyribac-sodium], the values for the IC50 in assay [3], in assay [4] and in assay [5] were 100 nM, 158 nM and 15.8 nM, respectively.

`CCS(=O)(=O)c1cccnc1S(=O)(=O)NC(=O)Nc1nc(OC)cc(OC)n1` [Rimsulfuron, rimsulfuron]: the IC50 in assay [3] is 158 nM; in assay [4], 2.51 nM; in assay [5] it was 10 nM.

Regarding `COc1cc(OC)nc(NC(=O)NS(=O)(=O)c2ncccc2C(F)(F)F)n1` [Flazasulfuron, flazasulfuron], the IC50 is 15.8 nM in assay [3] and 2.51 nM in assay [5].

For `COC(=O)c1csc(C)c1S(=O)(=O)NC(=O)n1nc(OC)n(C)c1=O` [Thiencarbazone-methyl, thiencarbazone-methyl], the “Herbicide injury on BRSNS [%] SR002201” value in assay [1] (20 g a.i./ha) amounted to 90%. The “Herbicide injury on BRSNS [%] FM 202” value in the assay on B. napus mutant FM 202 (20 g a.i./ha) is 0%.

Take `CCOc1ccccc1OS(=O)(=O)NC(=O)Nc1nc(OC)cc(OC)n1` [Ethoxysulfuron, ethoxysulfuron]: in assay [1] (60 g a.i./ha), the “Herbicide injury on BRSNS [%] SR002201” value came to 98%. For the same compound, the “Herbicide injury on BRSNS [%] FM 202” value in the assay with B. napus mutant FM 202 (60 g a.i./ha) was found to be 0%.

On to `COC(=O)c1ccc(CNS(C)(=O)=O)cc1S(=O)(=O)NC(=O)Nc1nc(OC)cc(OC)n1` [Mesosulfuron-methyl, mesosulfuron-methyl], for which the “Herbicide injury on BRSNS [%] SR002201” value in assay [1] (15 g a.i./ha) turned out to be 90%. The “Herbicide injury on BRSNS [%] FM 202” value in the assay with B. napus mutant FM 202 (15 g a.i./ha) is recorded as 0%.

As for `COc1cc(OC)n2nc(S(=O)(=O)Nc3c(Cl)ccc(C)c3Cl)nc2n1` [Metosulam, metosulam], the figures for the IC50 in assay [3], in assay [4] and in assay [5] were 794 nM, 39.8 nM and 3.16 nM, respectively.

`COC(=O)c1ccccc1S(=O)(=O)NC(=O)Nc1nc(C)nc(OC)n1` [Metsulfuron-methyl, metsulfuron-methyl]: the “Herbicide injury on BRSNS [%] SR002201” value in assay [1] (8 g a.i./ha) amounted to 93%. Besides, the “Herbicide injury on BRSNS [%] FM 202” value in the assay with B. napus mutant FM 202 (8 g a.i./ha) is recorded as 0%.

For the compound `COc1cc(OC)nc(NC(=O)NS(=O)(=O)N(C)S(C)(=O)=O)n1` [Amidosulfuron, amidosulfuron], the IC50 in assay [3] was 12600 nM; in assay [4] it was 1.26 nM.

With `COC(=O)c1sccc1S(=O)(=O)NC(=O)Nc1nc(C)nc(OC)n1` [Thifensulfuron-Methyl, thifensulfuron-methyl], the IC50 in assay [3] was 631 nM; in assay [4], 158 nM; in assay [5] it was 31.6 nM.

As for `COc1cc(OC)nc(NC(=O)NS(=O)(=O)c2ncccc2C(=O)N(C)C)n1` [Nicosulfuron, nicosulfuron], the IC50 in assay [3] was 1000 nM; in assay [4] it was 1580 nM; in assay [5], 63.1 nM.

In the case of `COc1cc(OC)nc(NC(=O)NS(=O)(=O)c2cc(NC=O)ccc2C(=O)N(C)C)n1` [Foramsulfuron, foramsulfuron], the IC50 in assay [3] is 501 nM.

As for `COCc1cnc(C2=NC(C)(C(C)C)C(=O)N2)c(C(=O)O)c1` (stereo not shown) [Imazamox, imazamox], the “Herbicide injury on BRSNS [%] SR002201” value in assay [1] (40 g a.i./ha) is reported as 93%. Further, in the assay with B. napus mutant FM 202 (40 g a.i./ha), the “Herbicide injury on BRSNS [%] FM 202” value is 0%. Moreover, the IC50 in assay [3] is over 100000 nM.

With `COC(=O)c1ccc(I)cc1S(=O)(=O)[N-]C(=O)Nc1nc(C)nc(OC)n1.[Na+]` [Iodosulfuron-methy-sodium, iodosulfuron-methyl-sodium], the “Herbicide injury on BRSNS [%] SR002201” value in assay [1] (7 g a.i./ha) came out at 95%. In addition, the “Herbicide injury on BRSNS [%] FM 202” value in the assay with B. napus mutant FM 202 (7 g a.i./ha) was 0%.
